For assay [1], the target named is T1, Olfr73 S113A (Mus musculus, UniProt Q920P2, S113A).
T1 construct: Rho (rhodopsin) tag; expressed in transfected cells; host or cells: Hana 3A cells
T1 sequence (Q920P2 1-313 S113A): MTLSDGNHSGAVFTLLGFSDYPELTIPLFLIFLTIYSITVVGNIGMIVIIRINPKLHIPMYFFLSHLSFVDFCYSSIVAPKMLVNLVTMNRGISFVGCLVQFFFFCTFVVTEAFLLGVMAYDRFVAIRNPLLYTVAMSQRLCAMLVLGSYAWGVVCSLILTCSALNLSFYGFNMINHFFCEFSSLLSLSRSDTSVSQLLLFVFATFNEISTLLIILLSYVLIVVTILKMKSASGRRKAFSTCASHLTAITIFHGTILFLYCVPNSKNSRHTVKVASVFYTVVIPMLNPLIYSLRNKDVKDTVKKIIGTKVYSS
Put plainly: cAMP reporter gene (SEAP) assay, Olfr73 S113A in Hana3A cells. The class given is cell-based. (In general: A reporter such as luciferase makes a cellular process visible.)

Assay [2] has as its target Olfr74 F260Y (Mus musculus, UniProt Q920P1, F260Y). Put plainly: cAMP reporter gene (SEAP) assay, Olfr74 F260Y in Hana3A cells. The class given is cell-based. On the procedure:
(§1) Confluent Hana 3A cells (35000 cells per well) cultured in a 96-well plate at 37 °C (Perkin-Elmer) were transfected with 0.15 μg of wild-type or mutated Olfr73 or Olfr74 encoding plasmid DNAs and 0.15 μg of the cAMP response element secreted alkaline phosphatase reporter plasmid (pCRE-SEAP) using Lipofectamine 2000 (Invitrogen). Cells were induced 8 h after transfection with cell medium containing the ligand, or cell medium alone. For screening compound library, stock solutions of odorants (0.2–1 M) were prepared from pure compounds either in dimethyl sulfoxide (DMSO, Sigma-Aldrich, Buchs, CH) or ethanol and were stored at −20 °C. Mixtures of 5 to 10 odorants prepared form stock solutions, were diluted in serum-free DMEM and applied to the cells 8 hours after transfection (<100 μM, final individual odorant concentration). Experiments were carried out in triplicates and in parallel with a mock control (cells transfected with non-coding plasmid DNA). A relative SEAP activity [(n-1) times mock level] was calculated for each odorant mixture and those that induced an activity larger than 1 were considered for further analysis.
(§2) For odorant dose-dependent measurements of cAMP signaling specific ligands were added at increasing concentrations and measured in duplicates. Odorant-induced responses were measured using the SEAP activity reporter assay 16 h after stimulation. An aliquot of supernatant from each well was then mixed with an equal volume of 1 M diethanolamine bicarbonate (pH 9.8) containing 20 mM p-nitrophenyl phosphate and 1 mM MgCl2 (Sigma). The kinetics of hydrolysis of p-nitrophenol phosphate by alkaline phosphatase was determined by measuring the absorbance at 410 nm using a multiwell plate reader (SpectraMax 360, Molecular Devices). To remove SEAP activity background noise from the measurements, the mean value of mock control SEAP activity (Supplementary Figures 8 and 9) was subtracted from the mean value of OR-induced SEAP activity for each odorant concentration. Dose response curves and EC50 values were then determined by fitting these points with the Hill equation using IGOR Pro software (WaveMetrics, Portland, OR, USA). Statistical significance of the differences in EC50 values was analyzed using a two-tailed Student’s t test. p values below 0.05 were considered as being significant.

Assay [3] has as its target T2, Olfr73 S113A-E208A-Y260F (Mus musculus, UniProt Q920P2, E208A/S113A/Y260F).
T2 construct: Rho (rhodopsin) tag; Myc; expressed in transfected cells; host or cells: Hana 3A cells
T2 sequence (Q920P2 1-313 S113A/E208A/Y260F): T1 sequence (Q920P2 1-313 S113A) with E208A, Y260F
The assay is described as follows: cAMP reporter gene (SEAP) assay, Olfr73 triple mutant in Hana3A cells. The class given is cell-based.

Assay [4] deals with T3, Olfr74 (mOR-EV) wt (Mus musculus, UniProt Q920P1).
T3 sequence (Q920P1 1-318): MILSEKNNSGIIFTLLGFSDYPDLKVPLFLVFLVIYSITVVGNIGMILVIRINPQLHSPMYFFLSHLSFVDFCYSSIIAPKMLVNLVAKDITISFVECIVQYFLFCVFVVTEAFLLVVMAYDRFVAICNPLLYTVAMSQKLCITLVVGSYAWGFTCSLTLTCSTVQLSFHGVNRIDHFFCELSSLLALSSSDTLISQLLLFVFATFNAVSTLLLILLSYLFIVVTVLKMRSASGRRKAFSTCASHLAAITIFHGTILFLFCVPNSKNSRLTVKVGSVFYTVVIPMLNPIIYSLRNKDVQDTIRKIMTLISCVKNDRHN
The assay is described as follows: cAMP reporter gene (SEAP) assay, Olfr74 wild type in Hana3A cells. It counts as cell-based. As to conditions: for activation of Olfr74 wild type: result in words.

For assay [5], the target named is T4, Olfr73 (mOR-EG) wt (Mus musculus, UniProt Q920P2).
T4 construct: Rho (rhodopsin) tag; Myc; Flag; expressed in transfected cells; host or cells: Hana 3A cells
T4 sequence (Q920P2 1-313): T1 sequence (Q920P2 1-313 S113A) with A113S
Put plainly: cAMP reporter gene (SEAP) assay, Olfr73 wild type in Hana3A cells. It counts as cell-based.

Assay [6] deals with T5, Olfr73 E208A (Mus musculus, UniProt Q920P2, E208A).
T5 construct: Rho (rhodopsin) tag; Myc; expressed in transfected cells; host or cells: Hana 3A cells
T5 sequence (Q920P2 1-313 E208A): T1 sequence (Q920P2 1-313 S113A) with A113S, E208A
The assay is described as follows: cAMP reporter gene (SEAP) assay, Olfr73 E208A in Hana3A cells. The class given is cell-based.

Assay [7] has as its system Olfr74. Details: method as in PMID 12767924. As to conditions: HEK cells ref 31; cited from earlier work.
The target of assay [8] is Olfr74 A113S (Mus musculus, UniProt Q920P1, A113S). The assay is described as follows: cAMP reporter gene (SEAP) assay, Olfr74 A113S in Hana3A cells. It counts as cell-based. On the procedure: as §1
Olfr74 A113S, sequence (Q920P1 entry or part of it A113S): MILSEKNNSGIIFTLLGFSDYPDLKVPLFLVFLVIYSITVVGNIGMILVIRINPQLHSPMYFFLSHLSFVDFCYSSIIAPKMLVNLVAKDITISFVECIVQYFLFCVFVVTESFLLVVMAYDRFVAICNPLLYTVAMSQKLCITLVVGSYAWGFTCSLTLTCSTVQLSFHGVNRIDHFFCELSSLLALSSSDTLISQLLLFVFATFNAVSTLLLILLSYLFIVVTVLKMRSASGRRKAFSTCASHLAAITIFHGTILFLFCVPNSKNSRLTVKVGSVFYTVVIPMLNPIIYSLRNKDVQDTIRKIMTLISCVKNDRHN
as §2, with “To remove SEAP activity background noise from the measurements, the mean value of mock control SEAP activity (Supplementary Figures 8 and 9) was subtracted from the mean value of OR-induced SEAP activity for each odorant concentration.” left out

The target of assay [9] is T6, Olfr73 Y260F (Mus musculus, UniProt Q920P2, Y260F).
T6 construct: Rho (rhodopsin) tag; Myc; expressed in transfected cells; host or cells: Hana 3A cells
T6 sequence (Q920P2 1-313 Y260F): T1 sequence (Q920P2 1-313 S113A) with A113S, Y260F
The assay is described as follows: cAMP reporter gene (SEAP) assay, Olfr73 Y260F in Hana3A cells. It counts as cell-based.
Procedure: Confluent Hana 3A cells (35000 cells per well) cultured in a 96-well plate at 37 °C (Perkin-Elmer) were transfected with 0.15 μg of wild-type or mutated Olfr73 or Olfr74 encoding plasmid DNAs and 0.15 μg of the cAMP response element secreted alkaline phosphatase reporter plasmid (pCRE-SEAP) using Lipofectamine 2000 (Invitrogen). Cells were induced 8 h after transfection with cell medium containing the ligand, or cell medium alone. […] Experiments were carried out in triplicates and in parallel with a mock control (cells transfected with non-coding plasmid DNA).

In assay [10] the test system is Olfr74 A113S-A208E-F260Y. Put plainly: cAMP reporter gene (SEAP) assay, Olfr74 triple mutant in Hana3A cells. The class given is cell-based, mouse. As to conditions: result in words. On the procedure:
as §1, with “Mixtures of 5 to 10 odorants prepared form stock solutions, were diluted in serum-free DMEM and applied to the cells 8 hours after transfection (<100 μM, final individual odorant concentration). Experiments were carried out in triplicates and in parallel with a mock control (cells transfected with non-coding plasmid DNA).” left out
For odorant dose-dependent measurements of cAMP signaling specific ligands were added at increasing concentrations and measured in duplicates. Odorant-induced responses were measured using the SEAP activity reporter assay 16 h after stimulation. […] The kinetics of hydrolysis of p-nitrophenol phosphate by alkaline phosphatase was determined by measuring the absorbance at 410 nm using a multiwell plate reader (SpectraMax 360, Molecular Devices). […]

Setting [11] is: dash in Table 1 = no measurable response, read-out: EC50 Olfr73 S113A.
Setting [12] is: EC50 Olfr74 F260Y, Hana3A cells, SEAP reporter.
[13] abbreviates: dash in Table 1 = no measurable response, read-out: EC50 Olfr73 S113A-E208A-Y260F.
[14] abbreviates: EC50 Olfr73 wt, Hana3A cells, SEAP reporter, dash in Table 1 = no measurable response.
[15] abbreviates: Hana3A cells, SEAP reporter, read-out: EC50 Olfr73 E208A.
Setting [16] is: EC50 Olfr74 (F260Y), Supplementary Table 1, rounded values derived from Fig. 2 and Supplementary Fig. 4, unit inferred.
The mark [17] stands for this setting: Hana3A cells, SEAP reporter, read-out: EC50 Olfr74 wt.
Setting [18] is: rounded values derived from Fig. 2 and Supplementary Fig. 4, unit inferred, read-out: EC50 Olfr74 (WT), Supplementary Table 1.
The mark [19] stands for this setting: rounded values derived from Fig. 2 and Supplementary Fig. 4, unit inferred, read-out: EC50 Olfr73 (WT), Supplementary Table 1.
[20] abbreviates: EC50 Olfr73 (E208A), Supplementary Table 1, rounded values derived from Fig. 2 and Supplementary Fig. 4, unit inferred.
[21] abbreviates: EC50 Olfr73 E208A, Hana3A cells, SEAP reporter.
Setting [22] is: read-out: EC50 Olfr73 S113A, dash in Table 1 = no measurable response.
[23] abbreviates: read-out: EC50 Olfr73 S113A-E208A-Y260F, dash in Table 1 = no measurable response.
[24] abbreviates: Hana3A cells, SEAP reporter, dash in Table 1 = no measurable response, read-out: EC50 Olfr73 wt.
Setting [25] is: dash in Table 1 = no measurable response, read-out: EC50 Olfr73 Y260F.

SMILES strings stand for the structures. Numbering of substitutions follows the chain as printed. “And” between values parts separate entries of the source, which are not always exact repeats. Equal entries are not always repeated. “Also recorded” adds a separate entry of the source. Where two headings read alike, the source gives them in different places.

Olfr74 F260Y, sequence (Q920P1 entry or part of it F260Y): as the sequence (Q920P1 entry or part of it A113S) above, with S113A, F260Y counted along it

As for `CCOc1cc(C=O)ccc1O` [Ethyl vanillin, ethyl vanillin], the EC50 (usually the midpoint of the concentration-response curve) was 202 ± 44 µM in [1] (setting [11]); 171 ± 35 µM in assay [2] (setting [12]); greater than 100 µM in assay [3] (setting [13]); 35 ± 4 µM in assay [5] (setting [14]); 147 ± 11 µM in assay [6] (setting [15]). Also, the “activation of Olfr74 wild type” value in assay [4] (Hana3A cells, SEAP reporter, listed as ethyl vanillin) was “no detectable activation”; in assay [4] (Hana3A cells, SEAP reporter, listed as ethyl-vanillin), “no response was detected; also recorded: do not activate”. For the same compound, the “cAMP signalling upon stimulation of Olfr74” value in [7] is given as “no cAMP signalling”.

As to `CCC=CCC1=C(C)CCC1=O` [Jasmone, 3-methyl-2-(pent-2-enyl)-cyclopent-2-enone], the 50% effective concentration (EC50) in [1] (EC50 Olfr73 S113A, dash in Table 1 = no measurable response) is greater than 100 µM; in assay [2] (setting [16]), 10 µM; in assay [2] (setting [12]), 8 µM and ~10 µM; in [8] it was 71 µM and ~70 µM; in assay [3] (EC50 Olfr73 S113A-E208A-Y260F, dash in Table 1 = no measurable response), 83 ± 11 µM; in assay [4] (setting [17]), 28 µM and ~30 µM. Moreover, the EC50 is 30 µM in [4] (setting [18]), greater than 100 µM in assay [5] (setting [19]), 70 µM in [6] (setting [20]) and 66 ± 9 µM in assay [6] (setting [21]). Also, in [5] (Hana3A cells, SEAP reporter, result in words), the “activation of Olfr73 wild type” value is “inactive”.

On to `C/C=C/c1ccc(OC)c(OC)c1` [MIEG, methyl isoeugenol], for which the concentration for a half-maximal effect (EC50) in [1] (setting [22]) was greater than 100 µM; in assay [2] (setting [12]), 406 ± 23 µM; in [3] (setting [23]), greater than 100 µM; in [5] (setting [24]) it was 131 ± 19 µM; in assay [6] (setting [21]), 10 ± 5 µM; in assay [9] (setting [25]) it was greater than 100 µM. The “activation of Olfr74 wild type” value in assay [4] (Hana3A cells, SEAP reporter) is given as “do not activate”.

With `COC(=O)c1ccc(O)c(OC)c1` [Methyl vanillate, methyl vanillate], the EC50 is greater than 100 µM in assay [1] (setting [11]); 447 ± 36 µM in [2] (setting [12]); greater than 100 µM in assay [3] (setting [13]); 240 µM and 241 µM in [5] (setting [24]); 347 ± 32 µM in assay [6] (setting [15]); greater than 100 µM in [9] (setting [25]). Also, in assay [4] (Hana3A cells, SEAP reporter), the “activation of Olfr74 wild type” value is given as “do not activate”.

In the case of `C=C(C)[C@@H]1CCC2=CC(=O)C[C@@H](C)[C@]2(C)C1` [Nootkatone, nootkatone], the EC50 in assay [1] (setting [22]) was greater than 100 µM; in [2] (setting [16]), 40 µM; in assay [2] (setting [12]), 35 µM and ~40 µM; in [8], 78 µM and ~80 µM; in assay [3] (setting [23]) it was greater than 100 µM; in assay [4] (setting [17]), 86 µM and ~90 µM. Also, the EC50 in assay [4] (setting [18]) was 90 µM; in assay [5] (EC50 Olfr73 (WT), Supplementary Table 1, rounded values derived from Fig. 2 and Supplementary Fig. 4, unit inferred) it was greater than 100 µM; in [5] (setting [14]), 225 ± 76 µM; in assay [6] (setting [20]), greater than 100 µM; in [6] (setting [21]), 277 ± 54 µM; in [9] (read-out: EC50 Olfr73 Y260F, dash in Table 1 = no measurable response) it was greater than 100 µM.

On to `CC(C)=CC1CC(C)CCO1` (centres unmarked) [Rose Oxide, rose oxide], for which the EC50 in [1] (setting [11]) was 23 ± 24 µM; in assay [2] (setting [16]), 40 µM; in assay [2] (setting [12]) it was 42 µM and ~40 µM; in [8] it was greater than 100 µM; in assay [3] (setting [13]), greater than 100 µM; in [4] (setting [17]), 155 ± 21 µM. In addition, the EC50 in [4] (setting [18]) is greater than 100 µM; in assay [5] (setting [24]) it was 35 ± 20 µM; in assay [5] (setting [19]) it was 30 µM; in assay [6] (setting [15]) it was ~10 µM and 10 µM. The “activation of Olfr74 triple mutant (A113S, A208E, F260Y)” value in assay [10] is “no detectable activation”.

The values are drawn from publication PMC4598832 (Scientific Reports, 2015).
